Test systems include HOP-18 NSCLC; DLD-1 colon; LXFL 529 NSCLC; XF 498 CNS; SNB-78 CNS; RXF-631 renal; M19-MEL melanoma; DMS 273 small cell lung; DMS 114 small cell lung.
Assay in all cases: growth of human tumour cells (NCI), 48 h

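Assay format: 96-well plates, 48-hour exposure. TGI: total growth inhibition.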

As to `COc1cc2ccnc(C#N)c2cc1OCc1ccccc1`, the TGI in the experiment on HOP-18 NSCLC, in the experiment with DLD-1 colon, in the experiment with LXFL 529 NSCLC, with XF 498 CNS and in the experiment with SNB-78 CNS was over 100 µM in each case.

For `O=C(O)C12C3CCC(C3)C1(C(=O)O)C1CCC2C1` (stereo unspecified), the TGI with HOP-18 NSCLC is over 100 µM; in the experiment with RXF-631 renal it was over 100 µM; in the experiment on M19-MEL melanoma, over 100 µM; in the experiment with DLD-1 colon it was 64.1 µM; in the experiment with LXFL 529 NSCLC, over 100 µM; in the experiment on XF 498 CNS, over 100 µM. Further, the TGI in the experiment on DMS 273 small cell lung, in the experiment with DMS 114 small cell lung and in the experiment on SNB-78 CNS was over 100 µM throughout.

As for `N#CCCC(C#N)(C#N)CCC#N`, the TGI in the experiment with M19-MEL melanoma, in the experiment on LXFL 529 NSCLC, in the experiment with XF 498 CNS, with DMS 273 small cell lung and in the experiment with DMS 114 small cell lung was over 100 µM throughout.

As to `CN1CCCS/C1=C1/SC(=S)N(c2ccccc2)C1=O`, the TGI in the experiment on HOP-18 NSCLC, with RXF-631 renal, in the experiment with M19-MEL melanoma, in the experiment on DLD-1 colon, in the experiment with LXFL 529 NSCLC and in the experiment on XF 498 CNS was over 100 µM each time. Moreover, the TGI in the experiment with DMS 273 small cell lung, with DMS 114 small cell lung and in the experiment on SNB-78 CNS was over 100 µM in each case.

With `COc1ccccc1/C=C1\CCC(Cc2ccccc2)(CN(C)C)C1=O` (stereo unspecified), the TGI in the experiment with HOP-18 NSCLC is over 100 µM; in the experiment on RXF-631 renal, 9.92 µM; with M19-MEL melanoma, over 58.9 µM; with DLD-1 colon, over 80.4 µM; in the experiment on LXFL 529 NSCLC, over 52.3 µM; with XF 498 CNS, over 72.6 µM. Also, the results for the TGI in the experiment with DMS 273 small cell lung, with DMS 114 small cell lung and in the experiment on SNB-78 CNS were 2.48 µM, over 36.2 µM and over 23.2 µM, respectively.

As for `O=c1[nH]c(=O)n([C@H]2C[C@@H](CO)[C@@H](O)C2)cc1I`, the TGI in the experiment with HOP-18 NSCLC, in the experiment with M19-MEL melanoma, with DLD-1 colon, in the experiment on LXFL 529 NSCLC, with DMS 273 small cell lung and in the experiment with DMS 114 small cell lung was over 100 µM in each case. Also, the TGI with SNB-78 CNS was over 100 µM.

As for `COc1ccc(S(=O)(=O)N/N=C(\C)CN2C(=O)c3ccccc3C2=O)cc1OC`, the TGI in the experiment with HOP-18 NSCLC, with M19-MEL melanoma, in the experiment with DLD-1 colon, in the experiment on LXFL 529 NSCLC, in the experiment on XF 498 CNS and in the experiment with DMS 273 small cell lung was over 100 µM each time. Besides, the TGI with DMS 114 small cell lung and with SNB-78 CNS was over 100 µM in each case.

Turning to `N#Cc1ccc(C2OCC3CC=CCC3CO2)cc1` (stereo unspecified), the TGI in the experiment with HOP-18 NSCLC, in the experiment on RXF-631 renal, in the experiment on M19-MEL melanoma, in the experiment on DLD-1 colon, in the experiment with LXFL 529 NSCLC and in the experiment with XF 498 CNS was over 100 µM in each case. The TGI in the experiment with DMS 114 small cell lung and in the experiment on SNB-78 CNS was over 100 µM each time.

As to `O=C1C(Cl)C(c2ccc(O)cc2)N1n1cnc2ccccc2c1=O` (stereo unspecified), the TGI in the experiment on HOP-18 NSCLC was over 100 µM; with M19-MEL melanoma it was 46.9 µM; in the experiment on DLD-1 colon, 55.3 µM; in the experiment on LXFL 529 NSCLC, 39.5 µM; in the experiment with XF 498 CNS, over 66.8 µM; in the experiment on DMS 273 small cell lung, over 100 µM. For the same compound, the TGI was over 81 µM with DMS 114 small cell lung and over 100 µM with SNB-78 CNS.

`O=C1CCC(=O)c2ccccc2N1`: the TGI in the experiment with HOP-18 NSCLC, in the experiment with M19-MEL melanoma, in the experiment with DLD-1 colon, in the experiment with LXFL 529 NSCLC, with XF 498 CNS and in the experiment with DMS 273 small cell lung was over 100 µM throughout. In the experiment on DMS 114 small cell lung, this compound showed a TGI of over 100 µM.

For `O=C1c2ccccc2C(=O)c2c1oc1cc(O)c(Cl)cc21`, the TGI in the experiment with HOP-18 NSCLC was 6.79 µM; in the experiment with M19-MEL melanoma, 0.445 µM; with DLD-1 colon, 19.5 µM; in the experiment on LXFL 529 NSCLC, over 46.3 µM; in the experiment with XF 498 CNS, 20.2 µM; in the experiment with DMS 273 small cell lung, 10.8 µM. Further, the results for the TGI in the experiment on DMS 114 small cell lung and in the experiment on SNB-78 CNS were 6.1 µM and 19.5 µM, respectively.

Turning to `c1cc2c(cc1C1OCC3C(c4ccc5c(c4)OCO5)OCC13)OCO2` (stereo unspecified), the TGI in the experiment on HOP-18 NSCLC was over 100 µM; in the experiment on M19-MEL melanoma, over 100 µM; with DLD-1 colon, over 100 µM; with LXFL 529 NSCLC it was over 100 µM; with XF 498 CNS it was 99.8 µM; in the experiment on DMS 114 small cell lung it was over 100 µM. For the same compound, the TGI in the experiment with SNB-78 CNS is over 100 µM.

Turning to `Cc1ccc(S(=O)(=O)c2ccc(C)cc2[N+](=O)[O-])c([N+](=O)[O-])c1`, the TGI with M19-MEL melanoma, with LXFL 529 NSCLC, in the experiment with XF 498 CNS, in the experiment with DMS 273 small cell lung, in the experiment on DMS 114 small cell lung and in the experiment with SNB-78 CNS was over 100 µM throughout.

As to `CN(C)CC1(Cc2ccccc2)CC/C(=C\c2ccccc2)C1=O` (stereo unspecified), the TGI in the experiment with HOP-18 NSCLC is over 100 µM; in the experiment with RXF-631 renal, 83.7 µM; in the experiment with M19-MEL melanoma it was 64.6 µM; in the experiment with DLD-1 colon it was over 100 µM; in the experiment on LXFL 529 NSCLC, over 100 µM; in the experiment on XF 498 CNS it was over 100 µM. Further, the TGI in the experiment on DMS 273 small cell lung was over 100 µM; in the experiment with DMS 114 small cell lung it was 80.1 µM; with SNB-78 CNS, over 100 µM.

As to `Cc1c(-c2coc(-c3ccc([N+](=O)[O-])cc3)n2)c(=O)n(-c2ccccc2)n1C`, the TGI in the experiment on M19-MEL melanoma, with DLD-1 colon, in the experiment with LXFL 529 NSCLC, in the experiment with DMS 273 small cell lung, in the experiment with DMS 114 small cell lung and in the experiment on SNB-78 CNS was over 100 µM in each case.

Source of the values: PubChem BioAssay (NCI).
